Measurements as given in publication PMC11393688, “Design and synthesis of new 1,2,4-oxadiazole/quinazoline-4-one hybrids with antiproliferative activity as multitargeted inhibitors” (Frontiers in Chemistry, 2024).

Assays:
[1] = tested on: four human cancer cell lines (HT-29, Panc-1, A-549, MCF-7); test: Average antiproliferative activity (GI50) over four cancer cell lines; format: cell-based; conditions: average IC50 against the four cancer cell lines
Protocol: (§1) 4.2.1.2. Assay for antiproliferative effect
(§2) To explore the antiproliferative potential of compounds MTT assay was performed according to previously reported procedure using different cell lines to explore the antiproliferative potential of […]
(§3) calculate the total nuclear DNA, a fluorescent dye (propidium iodide, PI) is used which can attach to the DNA, thus offering a quick and precise technique. PI cannot pass through the cell membrane and its signal intensity can be considered as directly proportional to quantity of cellular DNA.
(§4) Cells whose cell membranes are damaged or have changed permeability are counted as dead ones.
(§5) The assay was performed by seeding the cells of different cell lines at a density of 3000-7500 cells/well (in 200µl medium) in culture plates followed by incubation for 24h at 37 °C in humidified 5% CO2/95% air atmospheric conditions. The medium was removed; the compounds were added to the plates at 10 µM concentrations (in 0.1% DMSO) in triplicates, followed by incubation for 48 h. DMSO (0.1%) was used as control. After incubation, medium was removed […]
(§6) 80 °C, the plates were allowed to freeze for 24 h, followed by thawing at 25 °C. […]
(§7) (Polar-Star BMG Tech) was used to record the readings at excitation and emission wavelengths of 530 and 620 nm for each well. The percentage cytotoxicity of compounds was calculated using […]
(§8) Where ATC= Absorbance of treated cells and AC= Absorbance of control. Erlotinib was used as positive control in the assay.

[2] = tested on: colon cancer (HT-29) cell line; test: Antiproliferative MTT assay, HT-29; format: cell-based; conditions: Homo sapiens, HT-29 colon cancer cells, read-out: Antiproliferative activity IC50 ± SEM HT-29
[3] = tested on: pancreatic cancer (Panc-1) cell line; test: Antiproliferative MTT assay, Panc-1; format: cell-based; conditions: Homo sapiens, Panc-1 pancreatic cancer cells, read-out: Antiproliferative activity IC50 ± SEM Panc-1
Protocol: as §1, §2, §3, §4, §5, §6, §7, §8

[4] = tested on: lung cancer (A-549) cell line; test: Antiproliferative MTT assay, A-549; format: cell-based; conditions: Homo sapiens, A549, A-549 lung cancer cells, read-out: Antiproliferative activity IC50 ± SEM A-549
Protocol: as §1, §2, §3, §4, §5, §6, §7, §8

[5] = tested on: breast cancer (MCF-7) cell line; test: Antiproliferative MTT assay, MCF-7; format: cell-based; conditions: Homo sapiens, MCF7, MCF-7 breast cancer cells, read-out: Antiproliferative activity IC50 ± SEM MCF-7
Protocol: as §1, §2, §3, §4, §5, §6, §7, §8

[6] = Cell viability, MTT test on normal cell line; format: cell-based; conditions: human, MCF-10A mammary gland epithelial cells (normal cell line), MCF-10A normal cells, 4 days incubation
Protocol: The human mammary gland epithelial (MCF-10A) normal cell line was used to test the viability of novel compounds 9a-o ([Mahmoud et al., 2022]; [Mekheimer et al., 2022]). After 4 days of incubation on MCF-10A cells, the cell viability of compounds 9a-o was determined using the MTT test.
The human mammary gland epithelial (MCF-10A) normal cell line was used to test the viability of compounds 9a-o ([Mahmoud et al., 2022]; [Mekheimer et al., 2022]). Refer to Supplementary Appendix A (Supplementary Material) for more details.
4.2. Biological evaluation
4.2.1. Cytotoxic activity using MTT Assay and evaluation of IC50
MTT assay was carried out to study the effect of compounds on mammary epithelial cells (MCF-10A). The medium in which cells were propagated contained Dulbecco's modified Eagle's medium (DMEM)/ Ham's F-12 medium (1:1) supplemented with epidermal growth factor (20 ng/mL), hydrocortisone (500 ng/mL), insulin (10 μg/mL), 2 mM glutamine and 10% foetal calf serum.
After every 2-3 days, the cells were passaged using trypsin ethylenediamine tetra acetic acid (EDTA). The cells were seeded at a density of 10^4 cells mL-1 in flat-bottomed culture plates containing 96 wells each. After 24 h, medium was removed from the plates and the compounds in (in 0.1% DMSO) were added (in 200 μL medium to yield a final concentration of 0.1% v/v) to the wells of plates. A single compound was designated with four wells followed by incubation of plates for 96h at 37°C. After incubation, medium was removed completely from the plates followed by addition of MTT (0.4 mg/mL in medium) to each well and subsequent incubation of plates for 3h. MTT (along with the medium) was removed and DMSO (150μL) was added to each well of the culture plates, followed by vertexing and subsequent measurement of absorbance (at 540 nm) using microplate reader. The data are shown as percentage inhibition of proliferation in comparison with controls containing 0.1% DMSO.

BRAF^V600E = target: T1, BRAF^V600E (Homo sapiens, UniProt P15056, V600E); test: BRAF^V600E kinase inhibitory assay; format: biochemical, Mouse; conditions: read-out: BRAF^V600E inhibition IC50 ± SEM
T1 construct: Mouse full-length GST-tagged BRAFV600E; GST; purchased Invitrogen PV3849
T1 sequence (P15056 2-766 V600E limits assumed): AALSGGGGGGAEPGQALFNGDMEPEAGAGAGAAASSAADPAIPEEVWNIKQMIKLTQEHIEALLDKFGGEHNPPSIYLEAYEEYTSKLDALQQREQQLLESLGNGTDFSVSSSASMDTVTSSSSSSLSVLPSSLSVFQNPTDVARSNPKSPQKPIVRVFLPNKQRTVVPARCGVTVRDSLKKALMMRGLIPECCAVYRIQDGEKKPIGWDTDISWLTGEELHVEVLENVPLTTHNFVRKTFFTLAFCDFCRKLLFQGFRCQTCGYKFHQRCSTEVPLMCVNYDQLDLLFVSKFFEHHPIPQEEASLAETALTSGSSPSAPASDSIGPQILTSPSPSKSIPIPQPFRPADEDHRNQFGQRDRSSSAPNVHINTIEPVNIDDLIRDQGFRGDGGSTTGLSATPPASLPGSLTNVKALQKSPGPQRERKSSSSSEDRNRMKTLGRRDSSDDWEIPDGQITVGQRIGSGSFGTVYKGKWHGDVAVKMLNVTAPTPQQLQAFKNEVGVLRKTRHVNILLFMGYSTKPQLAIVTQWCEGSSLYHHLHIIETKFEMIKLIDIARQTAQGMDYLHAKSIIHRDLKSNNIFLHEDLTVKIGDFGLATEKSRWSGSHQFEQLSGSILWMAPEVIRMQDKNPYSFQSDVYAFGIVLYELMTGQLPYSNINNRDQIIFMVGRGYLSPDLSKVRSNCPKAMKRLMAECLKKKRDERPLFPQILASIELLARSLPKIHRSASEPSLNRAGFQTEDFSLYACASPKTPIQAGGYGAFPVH
Protocol: Refer to Supplementary Appendix A for more details. […]
4.2.1.4. BRAF kinase assay […]
against BRAF. Mouse full-length GST-tagged BRAFV600E (7.5 ng, Invitrogen, PV3849) was pre-incubated with drug (1 µL) and assay dilution buffer (4 µL) for 60 min at 25 °C. In assay dilution buffer, a solution (5 µL) containing MgCl2 (30 mM), ATP (200 µM), recombinant human full length (200 ng) […] N-terminal His-tagged MEK1 (Invitrogen) was added to start the assay, subsequent to incubation for 25 min at 25 °C. The assay was stopped using 5X protein denaturing buffer (LDS) solution (5 µL). To further denature the protein, heat (70° C) was applied for 5 min.
10 µL of each reaction was loaded into the precast plates and electrophoresis was allowed to proceed. After completion of electrophoresis, the front part of the precast gel plate (holding hot ATP) was cut and afterwards cast-off. The dried gel was developed using a phosphor screen. A […]
served as positive control. […]
(FITC) and propidium iodide (PI) staining kit (BD Pharmingen, San Diego, USA). […]
4.3. Statistical analysis
Computerized Prism 5 program was used to statistically analyzed data using one-way ANOVA test followed by Tukey’s as post ANOVA for multiple comparison at P ≤.05. Data were presented

EGFR = target: T2, EGFR (Homo sapiens, UniProt P00533); test: EGFR-TK inhibitory assay; format: biochemical; conditions: read-out: EGFR inhibition IC50 ± SEM
T2 construct: amino acids 645–1186; His6 (N); made in house; host or cells: Sf-9 insect cells (baculovirus; pBlueBacHis2B / pFASTBacHTc)
T2 sequence (P00533 669-1210): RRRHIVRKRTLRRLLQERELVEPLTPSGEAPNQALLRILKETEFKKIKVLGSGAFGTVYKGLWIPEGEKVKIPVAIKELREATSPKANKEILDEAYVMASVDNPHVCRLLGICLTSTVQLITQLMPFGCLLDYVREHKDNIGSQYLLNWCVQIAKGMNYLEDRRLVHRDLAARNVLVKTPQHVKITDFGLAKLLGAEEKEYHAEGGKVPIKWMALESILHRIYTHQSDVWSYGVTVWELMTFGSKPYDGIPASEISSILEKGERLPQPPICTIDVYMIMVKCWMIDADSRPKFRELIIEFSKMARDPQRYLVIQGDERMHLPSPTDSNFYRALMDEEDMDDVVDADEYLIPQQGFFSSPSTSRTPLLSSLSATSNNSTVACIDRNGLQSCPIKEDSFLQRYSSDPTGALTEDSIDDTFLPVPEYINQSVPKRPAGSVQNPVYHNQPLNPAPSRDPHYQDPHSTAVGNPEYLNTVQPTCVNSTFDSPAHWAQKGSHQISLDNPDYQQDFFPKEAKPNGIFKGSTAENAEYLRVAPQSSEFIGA
Protocol: 4.2.1.3. EGFR inhibitory assay
Sf-9 cells were infected for 72h for protein expression. […]
centrifugation for 20 min.
Histidine-linked proteins were first eluted with 250 and then […]
using wash buffer. Europium-tagged antiphosphotyrosine antibody (75 µL, 400 ng) was added to each well followed by incubation of 1h and then washing of the plates using buffer. The enhancement solution was added to each well and the signal was recorded at excitation and […]
The autophosphorylation percentage inhibition by compounds was calculated using the following equation: […]
(1 picture or pasted object on this page, not shown here)

GI50 [1] [µM]	IC50 [2] [µM]	IC50 [3] [µM]	IC50 [4] [µM]	melting point [°C]	IC50 [5] [µM]	IC50 (BRAF^V600E) [µM]	IC50 (EGFR) [µM]	Structure (SMILES)	viability at 96 h, 50 µM [6] [%]
0.048	0.048 ± 0.004	0.048 ± 0.004	0.046 ± 0.004	162 to 164	0.05 ± 0.004			O=c1c2ccccc2nc(SCc2nc(-c3ccccc3)no2)n1-c1ccccc1 [Compound 9a, 2-((3-Phenyl-1,2,4-oxadiazol-5-yl)methylthio)-3-phenylquinazolin-4(3H)-one]	90
0.055	0.055 ± 0.005	0.054 ± 0.005	0.054 ± 0.004	168 to 170	0.058 ± 0.005			Cc1ccc(-n2c(SCc3nc(-c4ccccc4)no3)nc3ccccc3c2=O)cc1 [Compound 9d, 2-((3-Phenyl-1,2,4-oxadiazol-5-yl)methylthio)-3-p-tolylquinazolin-4(3H)-one]	90
0.042	0.042 ± 0.004	0.042 ± 0.004	0.04 ± 0.003	156 to 158	0.044 ± 0.004			Cc1ccc(-n2c(SCc3nc(-c4ccc(Cl)cc4)no3)nc3ccccc3c2=O)cc1 [Compound 9e, 2-((3-(4-Chlorophenyl)-1,2,4-oxadiazol-5-yl)methylthio)-3-p-tolylquinazolin-4(3H)-one]	91
0.052	0.052 ± 0.005	0.052 ± 0.005	0.05 ± 0.004	165 to 167	0.053 ± 0.005			COc1ccc(-c2noc(CSc3nc4ccccc4c(=O)n3-c3ccc(C)cc3)n2)cc1 [Compound 9f, 2-((3-(4-Methoxyphenyl)-1,2,4-oxadiazol-5-yl)methylthio)-3-p-tolylquinazolin-4(3H)-one]	92
0.05	0.05 ± 0.005	0.05 ± 0.005	0.049 ± 0.004	170 to 172	0.052 ± 0.005			Cc1cccc(-n2c(SCc3nc(-c4ccccc4)no3)nc3ccccc3c2=O)c1 [Compound 9g, 2-((3-Phenyl-1,2,4-oxadiazol-5-yl)methylthio)-3-m-tolylquinazolin-4(3H)-one]	90
0.067	0.068 ± 0.006	0.066 ± 0.006	0.065 ± 0.006	194 to 196	0.069 ± 0.006			COc1ccc(-c2noc(CSc3nc4ccccc4c(=O)n3-c3cccc(C)c3)n2)cc1 [Compound 9i, 2-((3-(4-Methoxyphenyl)-1,2,4-oxadiazol-5-yl)methylthio)-3-m-tolylquinazolin-4(3H)-one]	91
0.07	0.068 ± 0.006	0.068 ± 0.006	0.069 ± 0.006	114 to 116	0.076 ± 0.007			CCn1c(SCc2nc(-c3ccccc3)no2)nc2ccccc2c1=O [Compound 9j, 2-((3-Phenyl-1,2,4-oxadiazol-5-yl)methylthio)-3-ethylquinazolin-4(3H)-one]	90
0.034	0.034 ± 0.003	0.034 ± 0.003	0.032 ± 0.003	118 to 120	0.035 ± 0.003	0.062 ± 0.005	0.084 ± 0.006	CCn1c(SCc2nc(-c3ccc(Cl)cc3)no2)nc2ccccc2c1=O [Compound 9k, 2-((3-(4-Chlorophenyl)-1,2,4-oxadiazol-5-yl)methylthio)-3-ethylquinazolin-4(3H)-one]	93
0.038	0.037 ± 0.003	0.038 ± 0.003	0.036 ± 0.003	134 to 136	0.04 ± 0.004	0.07 ± 0.005	0.091 ± 0.007	CCn1c(SCc2nc(-c3ccc(OC)cc3)no2)nc2ccccc2c1=O [Compound 9l, 2-((3-(4-Methoxyphenyl)-1,2,4-oxadiazol-5-yl)methylthio)-3-ethylquinazolin-4(3H)-one]	90
0.063	0.062 ± 0.006	0.064 ± 0.006	0.062 ± 0.006	110 to 112	0.065 ± 0.006			C=CCn1c(SCc2nc(-c3ccccc3)no2)nc2ccccc2c1=O [Compound 9m, 2-((3-Phenyl-1,2,4-oxadiazol-5-yl)methylthio)-3-allylquinazolin-4(3H)-one]	92
0.045	0.044 ± 0.004	0.045 ± 0.004	0.043 ± 0.004	115 to 117	0.047 ± 0.004			C=CCn1c(SCc2nc(-c3ccc(Cl)cc3)no2)nc2ccccc2c1=O [Compound 9n, 2-((3-(4-Chlorophenyl)-1,2,4-oxadiazol-5-yl)methylthio)-3-allylquinazolin-4(3H)-one]	91
0.057	0.057 ± 0.005	0.057 ± 0.005	0.056 ± 0.004	122 to 124	0.059 ± 0.005			C=CCn1c(SCc2nc(-c3ccc(OC)cc3)no2)nc2ccccc2c1=O [Compound 9o, 2-((3-(4-Methoxyphenyl)-1,2,4-oxadiazol-5-yl)methylthio)-3-allylquinazolin 4(3H)-one]	89

Structure (SMILES)	GI50 [1] [µM]	IC50 [2] [µM]	IC50 [3] [µM]	IC50 [4] [µM]	melting point [°C]	IC50 [5] [µM]	IC50 (BRAF^V600E) [µM]	IC50 (EGFR) [µM]	viability at 96 h, 50 µM [6] [%]
C#Cc1cccc(Nc2ncnc3cc(OCCOC)c(OCCOC)cc23)c1 [Erlotinib, reference compound]	0.033	0.03 ± 0.003	0.03 ± 0.003	0.03 ± 0.003		0.04 ± 0.003			
